Assay results: paper PMC5330258 (Journal of medicinal chemistry, 2016)
Read-outs that look alike come from different tables or passages of the source.

Columns and labels:
VDR = target: T1, VDR (Homo sapiens, UniProt P11473); experiment: Lentiviral VDRE-luciferase transcriptional reporter assay; type: cell-based; conditions: for VDR activation (in words): concentration up to 1000 nM, all three cell lines (HaCaT, Caco-2, Jurkat); for EC50: 24 h, NS: no significance
T1 sequence (P11473 1-427): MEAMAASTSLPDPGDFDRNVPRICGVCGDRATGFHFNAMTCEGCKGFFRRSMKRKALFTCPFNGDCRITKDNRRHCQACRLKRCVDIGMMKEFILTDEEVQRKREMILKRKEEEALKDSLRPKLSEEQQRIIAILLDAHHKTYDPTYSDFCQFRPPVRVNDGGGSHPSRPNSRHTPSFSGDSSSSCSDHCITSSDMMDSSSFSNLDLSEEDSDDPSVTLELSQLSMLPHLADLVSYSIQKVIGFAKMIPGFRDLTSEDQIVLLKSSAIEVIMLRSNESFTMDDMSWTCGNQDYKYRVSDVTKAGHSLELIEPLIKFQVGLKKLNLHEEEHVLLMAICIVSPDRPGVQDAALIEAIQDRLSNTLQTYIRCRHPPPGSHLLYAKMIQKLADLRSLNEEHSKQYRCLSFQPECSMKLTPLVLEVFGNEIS

[1] = cited from earlier work
SKMEL-188 melanoma cells = experiment: Antiproliferative activity on melanoma cells; type: cell-based; conditions: compared with parent compounds and 1,25(OH)2D3

With `C=C1CC[C@H](O)C/C1=C/C=C1\CCC[C@@]2(C)[C@H]1CC[C@@H]2[C@@](C)(O)C[C@H](O)CC(C)C` [17a, 20S,23R(OH)2D3] the “VDR activation (in words)” value (VDR) was “strong stimulatory effect”.

In the case of `C=C1CC[C@H](O)C/C1=C/C=C1\CCC[C@@]2(C)[C@H]1CC[C@@H]2[C@@](C)(O)CCCC(C)C` [20S(OH)D3, 20S-hydroxyvitamin D3], the Calcemic effect ([1]; doses up to 30 μg/kg in mice) is given as “noncalcemic”.

With `C=C1/C(=C\C=C2/CCC[C@@]3(C)[C@H]2CC[C@@H]3[C@@](C)(O)C[C@@H](O)CC(C)C)C[C@@H](O)C[C@@H]1O` [18b, 1α,20S,23S(OH)3D3] the “Maximal inhibition values (in words)” value (SKMEL-188 melanoma cells) was “higher maximal inhibition values”.

With `C=C1CC[C@H](O)C/C1=C/C=C1\CCC[C@@]2(C)[C@H]1CC[C@@H]2[C@@](C)(O)C[C@@H](O)CC(C)C` [17b, 20S,23S-dihydroxyvitamin D3] the “VDR activation (in words)” value (VDR) was “unable to activate VDR”, the EC50 (VDR; read-out: VDRE activation (EC50, nM) Caco-2, Caco-2 cells) was > 1000 nM and the EC50 (VDR; read-out: VDRE activation (EC50, nM) HaCaT, HaCaT cells) was > 1000 nM. The EC50 (VDR; read-out: VDRE activation (EC50, nM) Jurkat, Jurkat cells) was > 1000 nM.

In the case of `C=C1/C(=C\C=C2/CCC[C@]3(C)[C@@H]([C@H](C)CCCC(C)(C)O)CC[C@@H]23)C[C@@H](O)C[C@@H]1O` [1,25(OH)2D3, 1α,25-dihydroxyvitamin D3], the Calcemic effect ([1]; rats and mice) is listed as “causes hypercalcemia”.

In the case of `C=C1/C(=C\C=C2/CCC[C@@]3(C)[C@H]2CC[C@@H]3[C@@](C)(O)C[C@H](O)CC(C)C)C[C@@H](O)C[C@@H]1O` [18a, 1α,20S,23R(OH)3D3], the “Maximal inhibition values (in words)” value (SKMEL-188 melanoma cells) is reported as “higher maximal inhibition values” and the “EC50 in Jurkat cells relative to that of 18b” value (VDR; Jurkat cells) is reported as “six times lower”.
